Data reported in patent US20250011289A1, “1H-BENZO[B]AZEPIN-2(3H)-ONE COMPOUNDS, COMPOSITIONS AND METHODS OF TREATING CANCER” (Chengdu Anticancer Bioscience, Ltd., priority 2021, published 2025).
Read-outs that look alike come from different tables or passages of the source.

Experiments:
[1] = system: RPE-Neo or RPE-MYC cells; experiment: MTT assay of cellular proliferation; type: cell-based; settings: compounds at 20 nM to 20 μM; read-out: Min. Effective conc. for Proliferative arrest (>50%)
Procedure: Human cancer cell lines were obtained from ATCC and cultured in DMEM (Gibco, Cleveland. TN, USA) supplemented with 5% fetal bovine serum (Gibco), penicillin (100 U/mL)-streptomycin (100 μg/mL) (Gibco, Cat. No. 15140-122), 2 mM L-glutamine (Gibco, 200 mM solution, Cat. No. 25030081), and 1 mM sodium pyruvate (Gibco, 100 mM solution, Cat. No. 11360070) at 37° C. in a humidified incubator that was maintained at 5% CO2.
(§1) Screening was conducted as described before (Li et al. 2019). Briefly, RPE-Neo or RPE-MYC or RPE-MYC expressing an EGFP-Histone 2B fusion protein were passaged as batches of 96-well plates, 18-24 hours before exposure to the chemical compounds of the present disclosure at concentrations from 20 nM to 20 μM. At 24, 48 or 72 hours after initiation of treatment, cells were analyzed for either an arrest in mitosis or a change in DNA content by GE 1N-Cell Analyzer 2000. MTT assays of cellular proliferation were performed as previously described (Li et al. 2019).
(§2) As set forth in table 2 below, an values of greater than or equal to 1 nM and less than or equal to 1.0 μM is marked “A”; a value greater than 1.00 μM and less than or equal to 10.0 μM is marked “B”; a value greater than 10.0 μM and less than or equal to 30.0 μM is marked “C”; and a value greater than 30.0 μM and less than 1000 μM is marked “D.”

[2] = system: RPE-Neo or RPE-MYC or RPE-MYC expressing an EGFP-Histone 2B fusion protein; experiment: Phenotypic screening assay (arrest in mitosis or change in DNA content, IN-Cell Analyzer); type: cell-based; settings: compounds at 20 nM to 20 μM, analysed 24, 48 or 72 hours after initiation of treatment
Procedure: as §1, §2

[3] = read-out: Min. Effective conc. for Along with Cell Death
[4] = read-out: Min. Effective conc. for Mitotic Arrest (>5%)
[5] = read-out: Min. Effective conc. for Polyploidy (≥5%)

Measured: minimal effective concentration

Cc1ccc(CN2C(=O)CC(C=O)=C(Cl)c3ccccc32)cc1F [Compound 7-1, 5-chloro-1-(3-fluoro-4-methylbenzyl)-2-oxo-2,3-dihydro-1H-benzo[b]azepine-4-carbaldehyde]
0.001 to 1 µM: [1] | [2]; [3] | [2]; [4] | [2]; [5]

Cc1ccc(CN2C(=O)CC(c3cnco3)=C(Cl)c3ccccc32)cc1F [Compound 8-1, 5-chloro-1-(3-fluoro-4-methylbenzyl)-4-(oxazol-5-yl)-1,3-dihydro-2H-benzo[b]azepin-2-one]
0.001 to 1 µM: [1] | [2]; [3] | [2]; [4] | [2]; [5]

Cc1ccc(CN2C(=O)CC(c3cnco3)=C(Br)c3ccccc32)cc1F [Compound 8-2, 5-bromo-1-(3-fluoro-4-methylbenzyl)-4-(oxazol-5-yl)-1,3-dihydro-2H-benzo[b]azepin-2-one]
0.001 to 1 µM: [1] | [2]; [3] | [2]; [4] | [2]; [5]

Cc1ccc(CN2C(=O)CC(c3cnco3)=C(Br)c3ccc(Br)cc32)cc1F [Compound 8-3, 5,8-dibromo-1-(3-fluoro-4-methylbenzyl)-4-(oxazol-5-yl)-1,3-dihydro-2H-benzo[b]azepin-2-one]
0.001 to 1 µM: [1] | [2]; [3] | [2]; [4] | [2]; [5]

Cc1ccc(CN2C(=O)CC(c3cnco3)=C(Cl)c3ccc(C#N)cc32)cc1F [Compound 8-4, 5-chloro-1-(3-fluoro-4-methylbenzyl)-4-(oxazol-5-yl)-2-oxo-2,3-dihydro-1H-benzo[b]azepine-8-carbonitrile]
0.001 to 1 µM: [1] | [2]; [3] | [2]; [4] | [2]; [5]

COc1ccc2c(c1)N(Cc1ccc(C)c(F)c1)C(=O)CC(c1cnco1)=C2Cl [Compound 8-5, 5-chloro-1-(3-fluoro-4-methylbenzyl)-8-methoxy-4-(oxazol-5-yl)-1,3-dihydro-2H-benzo[b]azepin-2-one]
0.001 to 1 µM: [1] | [2]; [3] | [2]; [4] | [2]; [5]

COc1ccc2c(c1)N(Cc1ccc(C)c(F)c1)C(=O)CC(c1cnco1)=C2Br [Compound 8-6, 5-bromo-1-(3-fluoro-4-methylbenzyl)-8-methoxy-4-(oxazol-5-yl)-1,3-dihydro-2H-benzo[b]azepin-2-one]
0.001 to 1 µM: [1] | [2]; [3] | [2]; [4] | [2]; [5]

Cc1ccc(CN2C(=O)CC(c3cnco3)=C(Cl)c3ccc(O)cc32)cc1F [Compound 8-7, 5-chloro-1-(3-fluoro-4-methylbenzyl)-8-hydroxy-4-(oxazol-5-yl)-1,3-dihydro-2H-benzo[b]azepin-2-one]
0.001 to 1 µM: [1] | [2]; [3] | [2]; [4] | [2]; [5]

COCCOc1ccc2c(c1)N(Cc1ccc(C)c(F)c1)C(=O)CC(c1cnco1)=C2Cl [Compound 8-9]
0.001 to 1 µM: [1] | [2]; [3] | [2]; [4] | [2]; [5]

Cc1ccc(CN2C(=O)CC(c3cnco3)=C(Br)c3ccc(O)cc32)cc1F [Compound 8-10, 5-bromo-1-(3-fluoro-4-methylbenzyl)-8-hydroxy-4-(oxazol-5-yl)-1,3-dihydro-2H-benzo[b]azepin-2-one]
0.001 to 1 µM: [1] | [2]; [3] | [2]; [4] | [2]; [5]

Cc1ccc2c(c1)N(Cc1ccc(C)c(F)c1)C(=O)CC(c1cnco1)=C2Br [Compound 8-13, 5-bromo-1-(3-fluoro-4-methylbenzyl)-8-methyl-4-(oxazol-5-yl)-1,3-dihydro-2H-benzo[b]azepin-2-one]
0.001 to 1 µM: [1] | [2]; [3] | [2]; [4] | [2]; [5]

COC1=C(c2nc(C)no2)CC(=O)N(Cc2ccc(C)c(F)c2)c2cc(Br)ccc21 [Compound 10-1, 8-bromo-1-(3-fluoro-4-methylbenzyl)-5-methoxy-4-(3-methyl-1,2,4-oxadiazol-5-yl)-1,3-dihydro-2H-benzo[b]azepin-2-one]
0.001 to 1 µM: [1] | [2]; [3] | [2]; [4] | [2]; [5]

Cc1ccc(CN2C(=O)CC(c3ccon3)=C(Cl)c3ccccc32)cc1F [Compound 13-1, 5-chloro-1-(3-fluoro-4-methylbenzyl)-4-(isoxazol-3-yl)-1,3-dihydro-2H-benzo[b]azepin-2-one]
0.001 to 1 µM: [1] | [2]; [3] | [2]; [4] | [2]; [5]

Cc1ccc(CN2C(=O)CC(c3ccon3)=C(Br)c3ccccc32)cc1F [Compound 13-2]
0.001 to 1 µM: [1] | [2]; [3] | [2]; [4] | [2]; [5]

Cc1ccc(CN2C(=O)CC(c3nnc(N)s3)=C(Cl)c3ccccc32)cc1F [Compound 15-1, 4-(5-amino-1,3,4-thiadiazol-2-yl)-5-chloro-1-(3-fluoro-4-methylbenzyl)-1,3-dihydro-2H-benzo[b]azepin-2-one]
0.001 to 1 µM: [1] | [2]; [3] | [2]; [4] | [2]; [5]

Cc1ccc(CN2C(=O)CC(c3nnc(N)s3)=C(Br)c3ccccc32)cc1F [Compound 15-2, 4-(5-amino-1,3,4-thiadiazol-2-yl)-5-bromo-1-(3-fluoro-4-methylbenzyl)-1,3-dihydro-2H-benzo[b]azepin-2-one]
0.001 to 1 µM: [1] | [2]; [3] | [2]; [4] | [2]; [5]

Cc1noc(C2=C(Br)c3ccccc3N(Cc3ccc(C)c(F)c3)C(=O)C2)n1 [Compound 18-1, 5-bromo-1-(3-fluoro-4-methylbenzyl)-4-(3-methyl-1,2,4-oxadiazol-5-yl)-1,3-dihydro-2H-benzo[b]azepin-2-one]
0.001 to 1 µM: [1] | [2]; [3] | [2]; [4] | [2]; [5]

Cc1nnc(C2=C(Cl)c3ccccc3N(Cc3ccc(C)c(F)c3)C(=O)C2)o1 [Compound 20-1, 5-chloro-1-(3-fluoro-4-methylbenzyl)-4-(5-methyl-1,3,4-oxadiazol-2-yl)-1,3-dihydro-2H-benzo[b]azepin-2-one]
0.001 to 1 µM: [1] | [2]; [3] | [2]; [4] | [2]; [5]

Cc1nnc(C2=C(Br)c3ccccc3N(Cc3ccc(C)c(F)c3)C(=O)C2)o1 [Compound 20-2, 5-bromo-1-(3-fluoro-4-methylbenzyl)-4-(5-methyl-1,3,4-oxadiazol-2-yl)-1,3-dihydro-2H-benzo[b]azepin-2-one]
0.001 to 1 µM: [1] | [2]; [3] | [2]; [4] | [2]; [5]

Cc1ccc(CN2C(=O)CC(c3nnc(C4CC4)o3)=C(Br)c3ccccc32)cc1F [Compound 20-3, 5-bromo-4-(5-cyclopropyl-1,3,4-oxadiazol-2-yl)-1-(3-fluoro-4-methylbenzyl)-1,3-dihydro-2H-benzo[b]azepin-2-one]
0.001 to 1 µM: [1] | [2]; [3] | [2]; [4] | [2]; [5]
